Measurements published in patent US5753617A, “Peptide inhibitors of cellular adhesion” (Centocor, Inc., priority 1995, dated 1998).
Where a SMILES comes first, the peptide text is derived from it. Bridges are numbered along the chain shown (N, C = ends). [ ]: non-standard residue; d: D form. Tic = O=C(O)[C@@H]1Cc2ccccc2CN1

Target: T1, P-selectin (Homo sapiens, UniProt P16109)
T1 construct: P-selectin is isolated from human platelet lysates; from tissue; host or cells: human platelets (outdated platelet packs from a blood bank)
T1 sequence (P16109 42-830): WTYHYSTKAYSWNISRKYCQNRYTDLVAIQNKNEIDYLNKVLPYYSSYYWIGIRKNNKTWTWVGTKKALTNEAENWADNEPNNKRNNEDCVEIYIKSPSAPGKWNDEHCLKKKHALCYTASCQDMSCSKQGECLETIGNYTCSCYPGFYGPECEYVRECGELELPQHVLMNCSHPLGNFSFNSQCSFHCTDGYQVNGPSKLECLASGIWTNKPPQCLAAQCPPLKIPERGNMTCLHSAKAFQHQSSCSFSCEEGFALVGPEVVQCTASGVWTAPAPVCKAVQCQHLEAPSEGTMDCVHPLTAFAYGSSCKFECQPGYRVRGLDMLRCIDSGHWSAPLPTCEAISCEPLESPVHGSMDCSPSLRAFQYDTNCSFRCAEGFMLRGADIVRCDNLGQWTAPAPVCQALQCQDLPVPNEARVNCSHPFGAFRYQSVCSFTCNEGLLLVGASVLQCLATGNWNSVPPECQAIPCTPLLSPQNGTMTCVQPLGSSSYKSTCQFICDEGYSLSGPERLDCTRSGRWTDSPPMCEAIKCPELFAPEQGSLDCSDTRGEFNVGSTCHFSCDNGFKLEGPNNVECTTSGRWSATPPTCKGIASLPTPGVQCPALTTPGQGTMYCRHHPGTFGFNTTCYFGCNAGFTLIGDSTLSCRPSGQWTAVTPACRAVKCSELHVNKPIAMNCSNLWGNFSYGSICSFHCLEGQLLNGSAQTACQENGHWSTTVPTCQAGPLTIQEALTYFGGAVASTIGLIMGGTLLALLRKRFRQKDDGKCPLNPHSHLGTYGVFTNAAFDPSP
Experiment: Inhibition of human neutrophil adhesion to purified P-selectin immobilized on plastic wells
Format: cell-based
Details: inhibiting the binding of human neutrophils to P-selectin
How it was run: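 Isolated human neutrophils (2×10^5 per well) in HBSS with Ca2+/Mg2+ and HSA added to wells coated overnight at 4° C with platelet-derived P-selectin (5 micrograms/mL), HSA-blocked; 20 min at 22° C. Nonadherent cells removed by inverted centrifugation at 150 g; adherent cells quantified by myeloperoxidase activity.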

Row | Compound | IC50 [µM]
1 | CC(C)[C@@H](NC(=O)[C@@H](Cc1c[nH]c2ccccc12)NC(=O)[C@H](NC(=O)[C@@H](Cc1c[nH]c2ccccc12)NC(=O)[C@H]1CSSC[C@@H](NC(=O)[C@@H](CCCCN)NC(=O)[C@H](N)CCCNC(=N)N)C(=O)N2CCC[C@H]2C(=O)NCC(=O)N1)[C@H](C)O)C(N)=O [(83)] (H-[dR][dK][dC]PG[dC][dW][dT][dW][dV]-NH2; disulfide 3-6) | 983
2 | CC(C)[C@@H](NC(=O)[C@@H](Cc1c[nH]c2ccccc12)NC(=O)[C@H](NC(=O)[C@@H](Cc1c[nH]c2ccccc12)NC(=O)[C@H]1CSSC[C@@H](NC(=O)[C@@H](CCCCN)NC(=O)[C@H](N)CCCNC(=N)N)C(=O)NCC(=O)N2Cc3ccccc3C[C@H]2C(=O)N1)[C@H](C)O)C(N)=O [(86)] (H-[dR][dK][dC]G[Tic][dC][dW][dT][dW][dV]-NH2; disulfide 3-6) | 83.4
3 | CC(C)[C@@H](NC(=O)[C@@H](Cc1c[nH]c2ccccc12)NC(=O)[C@H](NC(=O)[C@@H](Cc1c[nH]c2ccccc12)NC(=O)[C@H]1CSSC[C@@H](NC(=O)[C@@H](CCCCN)NC(=O)[C@H](N)CCCNC(=N)N)C(=O)NCC(=O)N[C@@H](Cc2ccc(O)cc2)C(=O)N1)[C@H](C)O)C(N)=O [(87)] (H-[dR][dK][dC]GY[dC][dW][dT][dW][dV]-NH2; disulfide 3-6) | 5.7
4 | CC(C)[C@@H](NC(=O)[C@@H](Cc1c[nH]c2ccccc12)NC(=O)[C@H](NC(=O)[C@@H](Cc1c[nH]c2ccccc12)NC(=O)[C@@H]1CSSC[C@@H](NC(=O)[C@@H](CCCCN)NC(=O)[C@H](N)CCCNC(=N)N)C(=O)NCC(=O)N[C@@H](Cc2ccccc2)C(=O)N1)[C@H](C)O)C(N)=O [(91)] (H-[dR][dK][dC]GFC[dW][dT][dW][dV]-NH2; disulfide 3-6) | 42.7
5 | CC[C@H](C)[C@@H]1NC(=O)[C@H](NC(=O)[C@@H](CCCCN)NC(=O)[C@H](N)CCCNC(=N)N)CSSC[C@H](C(=O)N[C@H](Cc2c[nH]c3ccccc23)C(=O)N[C@@H](C(=O)N[C@H](Cc2c[nH]c3ccccc23)C(=O)N[C@@H](C(N)=O)C(C)C)[C@H](C)O)NC(=O)[C@@H]2CCCN2C1=O [(95)] (H-[dR][dK][dC]IP[dC][dW][dT][dW][dV]-NH2; disulfide 3-6) | 26.8
6 | CC(C)[C@@H](NC(=O)[C@H](Cc1c[nH]c2ccccc12)NC(=O)[C@H](NC(=O)[C@@H](Cc1c[nH]c2ccccc12)NC(=O)[C@H]1CSSC[C@@H](NC(=O)[C@@H](CCCCN)NC(=O)[C@H](N)CCCNC(=N)N)C(=O)NCC(=O)N[C@@H](Cc2ccccc2)C(=O)N1)[C@H](C)O)C(N)=O [(96)] (H-[dR][dK][dC]GF[dC][dW][dT]W[dV]-NH2; disulfide 3-6) | 26.7
7 | CC(C)[C@@H](NC(=O)[C@@H](Cc1c[nH]c2ccccc12)NC(=O)[C@@H](NC(=O)[C@@H](Cc1c[nH]c2ccccc12)NC(=O)[C@H]1CSSC[C@@H](NC(=O)[C@@H](CCCCN)NC(=O)[C@H](N)CCCNC(=N)N)C(=O)NCC(=O)N[C@@H](Cc2ccccc2)C(=O)N1)[C@@H](C)O)C(N)=O [(98)] (H-[dR][dK][dC]GF[dC][dW]T[dW][dV]-NH2; disulfide 3-6) | 28.7
8 | CC(C)[C@@H](NC(=O)[C@@H](Cc1c[nH]c2ccccc12)NC(=O)[C@H](NC(=O)[C@H](Cc1c[nH]c2ccccc12)NC(=O)[C@H]1CSSC[C@@H](NC(=O)[C@@H](CCCCN)NC(=O)[C@H](N)CCCNC(=N)N)C(=O)NCC(=O)N[C@@H](Cc2ccccc2)C(=O)N1)[C@H](C)O)C(N)=O [(99)] (H-[dR][dK][dC]GF[dC]W[dT][dW][dV]-NH2; disulfide 3-6) | 3.1
9 | CC(C)[C@@H](NC(=O)[C@@H](CCC(N)=O)NC(=O)[C@H](NC(=O)[C@@H](Cc1ccc(O)cc1)NC(=O)[C@H]1CSSC[C@@H](NC(=O)[C@@H](CCCCN)NC(=O)[C@H](N)CCCNC(=N)N)C(=O)NCC(=O)N[C@@H](Cc2ccccc2)C(=O)N1)[C@H](C)O)C(N)=O [(100)] (H-[dR][dK][dC]GF[dC][dY][dT][dQ][dV]-NH2; disulfide 3-6) | 88.3
10 | CC(C)[C@@H](NC(=O)[C@@H](Cc1c[nH]c2ccccc12)NC(=O)[C@H](NC(=O)[C@@H](Cc1c[nH]c2ccccc12)NC(=O)[C@H]1CSSC[C@@H](NC(=O)[C@@H](CCCCN)NC(=O)[C@@H](N)CCCNC(=N)N)C(=O)NCC(=O)N[C@@H](Cc2ccccc2)C(=O)N1)[C@H](C)O)C(N)=O [(101)] (H-R[dK][dC]GF[dC][dW][dT][dW][dV]-NH2; disulfide 3-6) | 33.9
11 | CC(=O)N[C@H](CCCCN)C(=O)N[C@@H]1CSSC[C@H](C(=O)N[C@H](Cc2c[nH]c3ccccc23)C(=O)N[C@@H](C(=O)N[C@H](Cc2c[nH]c3ccccc23)C(=O)N[C@@H](C(N)=O)C(C)C)[C@H](C)O)NC(=O)[C@H](Cc2ccc(O)cc2)NC(=O)CNC1=O [(104)] (Ac-[dK][dC]GY[dC][dW][dT][dW][dV]-NH2; disulfide 2-5) | 191
12 | C[C@H](O)[C@H]1NC(=O)[C@@H](Cc2c[nH]c3ccccc23)NC(=O)[C@H]2CSSC[C@@H](NC(=O)[C@H](NC(=O)[C@H](N)CCCNC(=N)N)CCCCNC(=O)CC[C@H](C(N)=O)NC(=O)[C@@H](Cc3c[nH]c4ccccc34)NC1=O)C(=O)NCC(=O)N[C@@H](Cc1ccccc1)C(=O)N2 [(105)] (H-[dR][dK][dC]GF[dC][dW][dT][dW][dE]-NH2; lactam 2-10; disulfide 3-6; N-terminus assumed) | 97.8
13 | CC(C)[C@@H](NC(=O)[C@@H](Cc1c[nH]c2ccccc12)NC(=O)[C@H]1CCC(=O)NCCCC[C@@H](NC(=O)[C@H](N)CCCNC(=N)N)C(=O)N[C@@H]2CSSC[C@@H](NC(=O)[C@H](Cc3ccccc3)NC(=O)CNC2=O)C(=O)N[C@H](Cc2c[nH]c3ccccc23)C(=O)N1)C(N)=O [(106)] (H-[dR][dK][dC]GF[dC][dW][dE][dW][dV]-NH2; lactam 2-8; disulfide 3-6; N-terminus assumed) | 8
14 | CC[C@@H](C)[C@@H](NC(=O)[C@@H](CCCCN)NC(=O)[C@H](N)CCCNC(=N)N)C(=O)NCC(=O)N[C@@H]1CSSC[C@H](C(=O)N[C@H](Cc2c[nH]c3ccccc23)C(=O)N[C@@H](C(N)=O)C(C)C)NC(=O)[C@@H](Cc2c[nH]c3ccccc23)NC(=O)[C@@H]([C@H](C)CC)NC1=O [(107)] (H-[dR][dK][dI]G[dC][dI][dW][dC][dW][dV]-NH2; disulfide 5-8) | 8
15 | CC[C@@H](C)[C@@H](NC(=O)[C@@H](CCCCN)NC(=O)[C@H](N)CCCNC(=N)N)C(=O)NCC(=O)N[C@@H]1CSSC[C@H](C(=O)N[C@@H](C(=O)N[C@@H](C(N)=O)C(C)C)[C@H](C)O)NC(=O)[C@@H](Cc2c[nH]c3ccccc23)NC(=O)[C@@H]([C@H](C)CC)NC1=O [(108)] (H-[dR][dK][dI]G[dC][dI][dW][dC][dT][dV]-NH2; disulfide 5-8) | 23.8
16 | CC[C@@H](C)[C@@H](NC(=O)CNC(=O)[C@H]1CSSC[C@@H](N)C(=O)N[C@H](CCCCN)C(=O)N[C@H]([C@H](C)CC)C(=O)N1)C(=O)N[C@H](Cc1c[nH]c2ccccc12)C(=O)N[C@@H](C(=O)N[C@H](Cc1c[nH]c2ccccc12)C(=O)N[C@@H](C(N)=O)C(C)C)[C@H](C)O [(109)] (H-[dC][dK][dI][dC]G[dI][dW][dT][dW][dV]-NH2; disulfide 1-4) | 33.9
17 | CC(C)[C@@H](NC(=O)[C@@H](Cc1c[nH]c2ccccc12)NC(=O)[C@H](NC(=O)[C@@H](Cc1c[nH]c2ccccc12)NC(=O)[C@H]1CSSC[C@@H](NC(=O)[C@@H](C)NC(=O)[C@H](N)CCCNC(=N)N)C(=O)NCC(=O)N[C@@H](Cc2ccccc2)C(=O)N1)[C@H](C)O)C(N)=O [(110)] (H-[dR][dA][dC]GF[dC][dW][dT][dW][dV]-NH2; disulfide 3-6) | 52.9
